Molecular target: T1, human V1b receptors (Homo sapiens, UniProt P47901)
T1 construct: expressed in transfected cells; host or cells: CHO-K1 (membrane preparation V1b-3H2)
T1 sequence (P47901 1-424): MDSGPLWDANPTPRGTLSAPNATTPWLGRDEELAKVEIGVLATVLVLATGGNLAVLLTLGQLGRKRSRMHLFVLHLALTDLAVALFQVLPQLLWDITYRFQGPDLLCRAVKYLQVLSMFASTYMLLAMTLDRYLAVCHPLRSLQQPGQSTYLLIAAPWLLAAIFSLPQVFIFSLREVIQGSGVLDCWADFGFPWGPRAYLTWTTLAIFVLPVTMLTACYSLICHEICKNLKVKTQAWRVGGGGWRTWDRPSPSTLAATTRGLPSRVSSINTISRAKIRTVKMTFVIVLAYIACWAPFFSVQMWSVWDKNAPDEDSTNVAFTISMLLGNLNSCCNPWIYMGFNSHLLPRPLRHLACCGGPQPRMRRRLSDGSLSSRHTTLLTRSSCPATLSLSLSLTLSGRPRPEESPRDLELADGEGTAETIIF
Test: Vasopressin V1b receptor binding assay
Settings: membranes from CHO-K1 cells expressing human V1b receptors, displacement of 1.5 nM 3H-AVP; read-out: Binding affinity for the vasopressin V1b receptor
Protocol: Vasopressin V1b Receptor Binding Assay
The binding of the compounds of this invention to the vasopressin V1b receptor was determined with the following assay:
Compounds were dissolved in a concentration of 10^−2 M or 10^−3 M in DMSO. Further dilutions were performed with water.
The procedure for the binding assay was based on the method of Tahara et al. (Tahara A et al., Brit. J. Pharmacol. 125, 1463-1470 (1998)). Assays (0.250 ml) consisted of membranes (58 μg protein) from CHO-K1 cells permanently expressing human V1b receptors (preparation V1b-3H2, containing protease inhibitors, Roche complete Mini #1836170), 1.5 nM ^3H-AVP (8-Arg-vasopressin, NET 800) in incubation buffer (total binding) and different concentrations of test compound (displacement). Non-specific binding was defined with 10^−6 M AVP. Assays were performed in triplicate.
Incubation buffer: 50 mM Tris, 10 mM MgCl2, 0.1% BSA adjusted to pH 7.4 with HCl.
After incubation, 60 min at room temperature, bound and free radioligand was separated by filtration under vacuum through Whatman GF/B glass fibre mats using a Skatron cell harvester 7000.
Liquid scintillation counting was performed in beta-counters, Tricarb model 2000 or 2200CA (Packard). Dpm were calculated by a programme with standardisation using a standard quench series.
Evaluation of binding parameters was performed by non-linear regression analysis with SAS. The strategy of this program is similar to the program LIGAND described by Munson and Rodbard (Munson PJ and Rodbard D, Analytical Biochem 107, 220-239 (1980)).

`COc1ccc(S(=O)(=O)N2C(=O)C(c3cnccc3OC)(N3C[C@H](O)C[C@H]3C(=O)N(C)C)c3cc(Cl)ccc32)c(OC)c1` (single isomer, unassigned) [Example 10] and `COc1ccc(S(=O)(=O)N2C(=O)C(c3nccnc3OC)(N3C[C@H](O)C[C@H]3C(=O)N(C)C)c3cc(I)ccc32)c(OC)c1` (single isomer, unassigned) [Example 243] cannot be ordered by Ki: less than 50 nM for the first, less than 50 nM for the second.

Compared with `COc1ncccc1C1(N2C[C@H](O)C[C@H]2C(=O)N(C)C)C(=O)N(S(=O)(=O)c2cccs2)c2ccc(Cl)cc21` (single isomer, unassigned) [Example 270], `COc1ncc(C2(N3C[C@H](O)C[C@H]3C(=O)N(C)C)C(=O)N(S(=O)(=O)c3cccs3)c3ccc(Cl)cc32)c(OC)n1` (single isomer, unassigned) [Example 281] is higher in Ki: less than 50 nM for the first, 50 to 500 nM for the second. The first binds more tightly here.

`COc1ncccc1C1(N2C[C@H](O)C[C@H]2C(=O)N(C)C)C(=O)N(S(=O)(=O)c2cccc3cccnc23)c2ccc(Cl)cc21` (single isomer, unassigned) [Example 288] and `COC(=O)[C@@H]1CCCN1C1(c2cccnc2OC)C(=O)N(S(=O)(=O)c2ccc(OC)cc2OC)c2ccc(Cl)cc21` (mixture of isomers) [Example 248, (S)-1-[5-Chloro-1-(2,4-dimethoxy-benzenesulfonyl)-3-(2-methoxy-pyridin-3-yl)-2-oxo-2,3-dihydro-1H-indol-3-yl]-pyrrolidine-2-carboxylic acid methyl ester] cannot be ordered by Ki: less than 50 nM for the first, less than 50 nM for the second.

First: COc1ncccc1C1(OC(=O)N2CCC(N3CCN(C)CC3)CC2)C(=O)N(S(=O)(=O)c2ccccc2)c2ccc(Cl)cc21 (stereo not drawn) [Example 103, 4-(4-Methyl-piperazin-1-yl)-piperidine-1-carboxylic acid 1-benzenesulfonyl-5-chloro-3-(2-methoxy-pyridin-3-yl)-2-oxo-2,3-dihydro-1H-indol-3-yl ester]
Second: COc1ncccc1C1(OC(=O)N2CCN(C3CCN(C)CC3)CC2)C(=O)N(S(=O)(=O)c2cc3ccccc3s2)c2ccc(Cl)cc21 (stereo not drawn) [Example 172, 4-(1-Methyl-piperidin-4-yl)-piperazine-1-carboxylic acid 1-(benzo[b]thiophene-2-sulfonyl)-5-chloro-3-(2-methoxy-pyridin-3-yl)-2-oxo-2,3-dihydro-1H-indol-3-yl ester diacetate]
The Ki of the first is lower: less than 50 nM for the first, 50 to 500 nM for the second.

`COc1ncccc1C1(OC(=O)N2CCN(C3CCN(C)CC3)CC2)C(=O)N(S(=O)(=O)c2ccc(C#N)cc2)c2ccc(Cl)cc21` (stereo not drawn) [Example 113, 4-(1-Methyl-piperidin-4-yl)-piperazine-1-carboxylic acid 5-chloro-1-(4-cyano-benzenesulfonyl)-3-(2-methoxy-pyridin-3-yl)-2-oxo-2,3-dihydro-1H-indol-3-yl ester diacetate] and `COc1ccccc1C1(OC(=O)N2CCN(C3CCN(C)CC3)CC2)C(=O)N(S(=O)(=O)c2cccc3cccnc23)c2ccc(Cl)cc21` (stereo not drawn) [Example 75, 4-(1-Methyl-piperidin-4-yl)-piperazine-1-carboxylic acid 5-chloro-3-(2-methoxy-phenyl)-2-oxo-1-(quinoline-8-sulfonyl)-2,3-dihydro-1H-indol-3-yl ester bismethanesulfonate] cannot be ordered by Ki: less than 50 nM for the first, less than 50 nM for the second.

Compared with `COc1ccc(S(=O)(=O)N2C(=O)C(OC(=O)Nc3ccc(Cl)cc3)(c3sccc3C)c3cc(Cl)ccc32)c(OC)c1` (stereo not drawn) [Example 63, (4-Chloro-phenyl)-carbamic acid 5-chloro-1-(2,4-dimethoxy-benzenesulfonyl)-3-(3-methyl-thiophen-2-yl)-2-oxo-2,3-dihydro-1H-indol-3-ylester], `CCOc1ccccc1C1(OC(=O)N2CCN(C3CCN(C)CC3)CC2)C(=O)N(S(=O)(=O)c2sccc2OC)c2ccc(Cl)cc21` (stereo not drawn) [Example 143, 4-(1-Methyl-piperidin-4-yl)-piperazine-1-carboxylic acid 5-chloro-3-(2-ethoxy-phenyl)-1-(3-methoxy-thiophene-2-sulfonyl)-2-oxo-2,3-dihydro-1H-indol-3-yl ester] is lower in Ki: greater than 500 nM for the first, less than 50 nM for the second.

From US8580842B2, “Heteroaryl-substituted 1,3-dihydroindol-2-one derivatives and medicaments containing them” (Abbott GmbH & Co. KG, priority 2003, dated 2013)
